Measured values published in patent US9107814B2, “Micelle composition of polymer and passenger drug” (Wisconsin Alumni Research Foundation, priority 2005, dated 2015).
Converted amounts (≈) assume the structure as drawn. Where two headings read alike, the source gives them in different places.

Legend:
[1] = cited from earlier work
[2] = paclitaxel prodrug loading and sizing of PEG-b-PCL micelles; format: physicochemical; details: 20% w/w prodrug loading in 0.5-mM PEG-b-PCL micelles
Experimental: The organic solvent was then removed by stirring under an air purge. Where stated, samples were further concentrated by prolonged evaporation under an air purge. After removing the organic solvent, PEG-b-PCL micelles were passed through a 0.22-μm polyestersulfone filter to remove insoluble material and unincorporated drug. In a typical experiment, […] of PEG-b-PCL was dissolved in 0.75 ml of dry acetone and added dropwise (50 μL/min) to 2 ml of ddH2O yielding 0.5-mM PEG-b-PCL micelles after removing the volatile organic solvent.
The incorporation of prodrugs into PEG-b-PCL micelles was verified by equivalent retention times in UV and RI chromatographs from gel permeation chromatography. PEG-b-PCL micelles were injected on an OHpak SB-806M GPC column (20-μL injections, 0.5-mM PEG-b-PCL, 0.75 ml/min of ddH2O, 10° C.) (Shodex, Kawasaki, Japan) and detected by refractive index (RI) and UV absorbance (232 nm). Prodrug loading into PEG-b-PCL micelles was quantitatively determined by reverse-phase HPLC (Alltech Econosphere 3-μm 4.6×50 mm) using a 0.01% (v/v) trifluoroacetic acid—ACN gradient (40-100% ACN, 50° C., 232-nm detection). Hydrodynamic diameters of PEG-b-PCL micelles were determined by dynamic light scattering (DLS) (NICOMP 380 ZLS, Particle Sizing Systems, Santa Barbara, Calif.). Data were analyzed by intensity-weighted Gaussian distribution fitting (NICOMP version 1.76). Measurements were made for a minimum of 10 min or at least 100×10^5 counts in channel 1.

[3] = tested on: MDA-MB-468 breast cancer cell line; assay: MTS cytotoxicity assay; format: cell-based; details: MDA-MB-468, 4 days, drugs in 1% DMSO
Experimental: Cytotoxicities of the drugs to the MDA-MB-468 breast cancer cell line (ATCC) were determined. Cells are plated at a density of 3000 cells/well into 96 well plates (100 μl/well DMEM medium). After 24 hours, drugs were added dissolved in 1% DMSO. Cells were incubated with drugs for 4 days and toxicity determined using the MTS cytotoxicity assay according to manufacturer's directions (Promega, Madison, Wis.).

[4] = octanol-water partition coefficient by microemulsion electrokinetic chromatography (MEEKC)
Experimental: (§1) The octanol-water partition coefficient of geldanamycin was determined by microemulsion electrokinetic chromatography.
(§2) Running buffer was prepared by titration of 25-mM sodium phosphate monobasic with 50-mM sodium tetraborate to pH 7.00, and 1.44 g of sodium dodecyl sulfate, 6.49 g of 1-butanol, and 0.82 g of heptane were made up to 100 ml with phosphate-borate buffer. The running buffer was ultrasonicated for 30 min in a closed 250-ml flask in ice water (G112SP1 Special Ultrasonic Cleaner, Laboratory Supplies Company Inc., Hicksville, N.Y.). […] Compounds and standards (n=3) were dissolved in the running buffer (0.05 mg/ml) with 0.5 μL/ml of nitromethane and 0.5 μL/ml of 1-phenyldodecane by ultrasonication (10 min) in a closed tube and centrifuged (16000×g, 3 min) to degas. A BioFocus 3000 capillary electrophoresis system (Bio-Rad, Hercules, Calif.) equipped with a 50-μm ID×37-cm uncoated fused-silica column (Polymicron Technologies LLC, Phoenix, Ariz.) was used for MEEKC experiments. The column was prewashed with 1-M NaOH for 5 min and before runs with 0.1-M NaOH for 1 min, ddH2O for 1 min, and running buffer for 1 min at 100 psi (690 kPa). Running conditions were 10 kV (ca. 30-35 μA, 30 min/run) at 20° C. with 1-psi·s injections (6.9 kPa·s) and detection at 210 and 232 nm. Log Po/w and retention factors, k′, were calculated using the equations:
(§3) [formula] [formula] where tr, t0, and tme are retention times of the prodrug, nitromethane, and 1-phenyldodecane, respectively. Fitting parameters a and b were determined by linear regression of known standards: pyridine, phenol, benzoic acid, anisole, benzene, toluene, dodecanoic acid, benzopyrene, and pyrene (R^2=0.996, Excel® 2003, Microsoft Corp.).

[5] = geldanamycin prodrug loading into and release from PEG-b-PCL micelles; format: physicochemical; details: for Diff Coef: 0.5 mM PEG-b-PCL (5000:10000 Da) micelles, pH 7.4 phosphate buffer, 37° C., 10000MWCO dialysis; for w/w drug/carrier / Conc: 0.5 mM PEG-b-PCL micelles; for w/w drug/carrier: target 25% wt loading; for Conc: target […]; for time after which almost/substantially all the drug is released: prodrug loaded micelles; for fraction released: prodrug in micelles
Experimental: Drug diffusion was calculated as described in Forrest and Kwon, 2005 (Journal of Controlled Release).
PEG-PCL micelles are prepared by the drop-wise addition of geldanamycin prodrug and PEG-PCL dissolved in a miscible solvent, acetone, to vigorously stirred water, followed by removal of the solvent by N2 purge, and 0.2-μm filtration. Alternatively, the solution may be centrifuged to remove unincorporated and aggregated drug. The final solvent to water ratio is between about 0.1 and about 5, preferably between about 0.5 and about 4, and more preferably about 2. The micelle solution should be delivered at a rate of between about 2 s/drop and about 60 s/drop, preferably between about 5 s/drop and about 30 s/drop, and more preferably between about 10 s/drop and about 20 s/drop.

[6] = loading of rapamycin and geldanamycin into PEG-DSPE and PEG-PCL micelles; format: physicochemical; details: micelle solution against water solubility
From the text: The final solvent to water ratio is between about 0.1 and about 5, preferably between about 0.5 and about 4, and more preferably about 2. The micelle solution should be delivered at a rate of between about 2 s/drop and about 60 s/drop, preferably between about 5 s/drop and about 30 s/drop, and more preferably between about 10 s/drop and about 20 s/drop.

[7] = preclinical trials; cited from earlier work
[8] = cited from earlier work; remark: listed apart in the source
[9] = cited from earlier work; remark: listed apart in the source
[10] = different species; cited from earlier work

Experimental for physchem: as §1, §2, §3

SMILES | IC50 [3] [nM] | Diff Coef [5] | w/w drug/carrier [5] [%] | Conc [5] [µg/mL] | time after which almost/substantially all the drug is released [5] | fraction released ([5]; time 0 days) | fraction released ([5]; time 0.83 days) | fraction released ([5]; time 2 days) | fraction released ([5]; time 4 days) | fraction released ([5]; time 8 days) | further results
CO[C@H]1/C=C\C=C(/C)C(=O)NC2=CC(=O)C(NCCN(C)C)=C(C[C@@H](C)C[C@H](OC)[C@H](O)[C@@H](C)/C=C(\C)[C@@H]1OC(N)=O)C2=O [Prodrug 17DMAG] | – | – | – | – | – | – | – | – | – | – | MTD dog [1]: 8 mg/m^2
CC(=O)O[C@H]1C(=O)[C@@]2(C)[C@H]([C@H](OC(=O)c3ccccc3)[C@]3(O)C[C@H](OC(=O)[C@H](O)[C@@H](NC(=O)c4ccccc4)c4ccccc4)C(C)=C1C3(C)C)[C@]1(OC(C)=O)CO[C@@H]1C[C@@H]2O [Paclitaxel, reference compound] | – | – | – | – | – | – | – | – | – | – | chromatographic logP (physchem; pH 7): 4.4 ± 0.06; Solubilized [2]: <0.2 mg/mL; prodrug:caprolactone [2]: <1 mmol:mol
CCCCCC(=O)OCCNC1=C2CC(C)CC(OC)C(O)C(C)C=C(C)C(OC(N)=O)C(OC)C=CC=C(C)C(=O)NC(=CC1=O)C2=O (stereo not shown) [17-aminoethyl-hexonate-17-demethoxygeldanamycin] | 240 | – | – | – | – | – | – | – | – | – | –
CCCCCCCCCCCCCCCCNC1=C2CC(C)CC(OC)C(O)C(C)C=C(C)C(OC(N)=O)C(OC)C=CC=C(C)C(=O)NC(=CC1=O)C2=O (stereo not shown) [17-amino-hexyldecyl-17-demethoxygeldanamycin] | – | 1.69 × 10^−20 cm2/s | 20 ± 2 | 1500 | about 12 days | 0 | 0 | 0.1398 | 0.3551 | 0.6364 | Log Po/w [4]: 4.30; fraction released ([5]; time 6 days): 0.3985; fraction released ([5]; time 10 days): 0.7517; fraction released ([5]; time 12 days): 0.8238
COC1C=CC=C(C)C(=O)NC2=CC(=O)C(NCCO)=C(CC(C)CC(OC)C(O)C(C)C=C(C)C1OC(N)=O)C2=O (stereo not shown) [17-hydroxyethylamino-17-demethoxygeldanamycin, reference compound] | 73 | – | – | – | – | – | – | – | – | – | –
COC1=C2C[C@@H](C)C[C@H](OC)[C@H](O)[C@@H](C)/C=C(\C)[C@H](OC(N)=O)[C@@H](OC)/C=C\C=C(/C)C(=O)NC(=CC1=O)C2=O [Geldanamycin] | – | – | – | – | – | – | – | – | – | – | IC50 ([3]; Homo sapiens, 96 h): 5 nM; chromatographic logP (physchem): ~2.77; increase in solubility [6]: 300 fold; MTD dog [1]: < 100 mg/m^2; dose limiting severe hepatotoxicity [7]: 4 mg/kg; water solubility [8]: ~1.5 µg/mL (≈ 2.68 µM)
CCCCCCCCCCCCCCCC(=O)OCCNC1=C2CC(C)CC(OC)C(O)C(C)C=C(C)C(OC(N)=O)C(OC)C=CC=C(C)C(=O)NC(=CC1=O)C2=O (stereo not shown) [17-aminoethyl-palmitate-17-demethoxygeldanamycin] | 350 | 3.61 × 10^−20 cm2/s | 22 ± 5 | 1700 | about 8 days | 0 | 0.1695 | 0.2916 | 0.6116 | 0.9528 | –
C=CCNC1=C2C[C@@H](C)C[C@H](OC)[C@H](O)[C@@H](C)/C=C(\C)[C@H](OC(N)=O)[C@@H](OC)/C=C\C=C(/C)C(=O)NC(=CC1=O)C2=O [Prodrug 17-AAG] | – | – | – | – | – | – | – | – | – | – | dose limiting toxicity ([9]; Phase I): GI toxicity to be dose limiting; suggested Phase II dosing ([9]; from Phase I results): 40 mg/m^2; MTD dog ([1]; in vivo): 500 mg/m^2
CCCCCCCCCCCC(=O)OCCNC1=C2CC(C)CC(OC)C(O)C(C)C=C(C)C(OC(N)=O)C(OC)C=CC=C(C)C(=O)NC(=CC1=O)C2=O (stereo not shown) [17-aminoethyl-dodeconate-17-demethoxygeldanamycin] | – | 2.55 × 10^−20 cm2/s | 21 ± 2 | 1600 | about 8 days | 0 | 0.1688 | 0.2909 | 0.3431 | 0.9878 | Log Po/w [4]: 4.16; fraction released ([5]; time 6 days): 0.8531
CO[C@H]1C[C@@H]2CC[C@@H](C)[C@@](O)(O2)C(=O)C(=O)N2CCCC[C@H]2C(=O)O[C@H]([C@H](C)C[C@@H]2CC[C@@H](O)[C@H](OC)C2)CC(=O)[C@H](C)/C=C(\C)[C@@H](O)[C@@H](OC)C(=O)[C@H](C)C[C@H](C)/C=C/C=C/C=C/1C [Rapamycin] | – | – | – | – | – | – | – | – | – | – | half-life [10]: more than 5 hours; chromatographic logP (physchem): 3.77; increase in solubility [6]: 1900 fold
